Assay results taken from patent publication US20260241012A1, “1,8-NAPHTHYRIDIN-2-ONE HETEROBIFUNCTIONAL BCL6 DEGRADERS” (Treeline Biosciences, Inc., priority 2022, published 2026).

Target: T1, N-terminal HiBiT tagged BCL6 (Homo sapiens, UniProt P41182)
T1 construct: expressed in transfected cells; host or cells: HT1080 (ATCC CCL-121), stably transduced with lentivirus pLV-UBC-N-HiBiT-BCL6-PGK-puro
Test: HiBiT based degradation assay
Type: cell-based
Conditions: HT1080 cells expressing N-terminal HiBiT tagged BCL6, 5 hours of incubation; for Ymin (5 hr): BCL6 degradation normalized with DMSO control; for DC50: four-parameter logistic model, read-out: EC50 (5 hr)
Summary of the method: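 Degradation measured by luminescence from the Nano-Glo HiBiT lytic reagent (15 min, room temperature), normalized to DMSO controls and fitted to a four-parameter curve.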

CNC(=O)COc1cc2cc(Nc3nc(N4CCC(CN5CC6CC(C5)N6c5cccc6c(C7CCC(=O)NC7=O)nn(C)c56)CC4)ncc3Cl)cnc2n(C(C)C)c1=O (stereo not shown) [Compound 187, 2-[[6-[[5-chloro-2-[4-[[6-[3-(2,6-dioxo-3-piperidyl)-1-methyl-indazol-7-yl]-3,6-diazabicyclo[3.1.1]heptan-3-yl]methyl]-1-piperidyl]pyrimidin-4-yl]amino]-1-isopropyl-2-oxo-1,8-naphthyridin-3-yl]oxy]-N-methyl-acetamide]
Ymin (5 hr): +++ (30% ≤ Ymin < 50%)
DC50: 10 to 100 nM

CNC(=O)COc1cc2cc(Nc3nc(N4CCC5(CCN(CC6CCN(c7cccc8c(C9CCC(=O)NC9=O)nn(C)c78)CC6)CC5)CC4)ncc3Cl)cnc2n(C)c1=O (stereo not shown) [Compound 113, 2-((6-((5-chloro-2-(9-((1-(3-(2,6-dioxopiperidin-3-yl)-1-methyl-1H-indazol-7-yl)piperidin-4-yl)methyl)-3,9-diazaspiro[5.5]undecan-3-yl)pyrimidin-4-yl)amino)-1-methyl-2-oxo-1,2-dihydro-1,8-naphthyridin-3-yl)oxy)-N-methylacetamide]
Ymin (5 hr): ++++ (Ymin < 30%)
DC50: 10 to 100 nM

CNC(=O)COc1cc2cc(Nc3nc(N4CCC(CN5CCN(c6cccc7c(C8CCC(=O)NC8=O)nn(C)c67)C[C@H]5C)CC4)ncc3F)cnc2n(C(C)C)c1=O (stereo partly drawn) [Compound 188a, 2-[[6-[[2-[4-[[(2R)-4-[3-(2,6-dioxo-3-piperidyl)-1-methyl-indazol-7-yl]-2-methyl-piperazin-1-yl]methyl]-1-piperidyl]-5-fluoro-pyrimidin-4-yl]amino]-1-isopropyl-2-oxo-1,8-naphthyridin-3-yl]oxy]-N-methyl-acetamide]
Ymin (5 hr): +++ (30% ≤ Ymin < 50%)
DC50: 10 to 100 nM

CNC(=O)COc1cc2cc(Nc3nc(N4CCC5(CCN(CC6CCN(c7cc8c(cc7F)c(C7CCC(=O)NC7=O)nn8C)CC6)CC5)CC4)ncc3Cl)cnc2n(C(C)C)c1=O (stereo not shown) [Compound 239, 2-((6-((5-chloro-2-(9-((1-(3-(2,6-dioxopiperidin-3-yl)-5-fluoro-1-methyl-1H-indazol-6-yl)piperidin-4-yl)methyl)-3,9-diazaspiro[5.5]undecan-3-yl)pyrimidin-4-yl)amino)-1-isopropyl-2-oxo-1,2-dihydro-1,8-naphthyridin-3-yl)oxy)-N-methylacetamide]
Ymin (5 hr): ++++ (Ymin < 30%)
DC50: 10 to 100 nM

CNC(=O)COc1cc2cc(Nc3nc(N4CCN(CC5CCN(c6cccc7c(C8CCC(=O)NC8=O)nn(C)c67)CC5)CC4)ncc3Cl)cnc2n(C2CC2)c1=O (stereo not shown) [Compound 150, 2-((6-((5-chloro-2-(4-((1-(3-(2,6-dioxopiperidin-3-yl)-1-methyl-1H-indazol-7-yl)piperidin-4-yl)methyl)piperazin-1-yl)pyrimidin-4-yl)amino)-1-cyclopropyl-2-oxo-1,2-dihydro-1,8-naphthyridin-3-yl)oxy)-N-methylacetamide]
Ymin (5 hr): ++++ (Ymin < 30%)
DC50: < 10 nM

CNC(=O)COc1cc2cc(Nc3nc(N4CC5(CC[C@H](Nc6ccc7c(C8CCC(=O)NC8=O)nn(C)c7c6)[C@@H](C)C5)C4)ncc3Cl)cnc2n(C)c1=O (single isomer, unassigned) [Compound 156a]
Ymin (5 hr): ++++ (Ymin < 30%)
DC50: < 10 nM

CNC(=O)COc1cc2cc(Nc3nc(N4CCN(C(=O)N5CCC(c6cccc7c(C8CCC(=O)NC8=O)nn(C)c67)CC5)CC4)ncc3Cl)cnc2n(C(C)C)c1=O (stereo not shown) [Compound 224, 2-[[6-[[5-chloro-2-[4-[4-[3-(2,6-dioxo-3-piperidyl)-1-methyl-indazol-7-yl]piperidine-1-carbonyl]piperazin-1-yl]pyrimidin-4-yl]amino]-1-isopropyl-2-oxo-1,8-naphthyridin-3-yl]oxy]-N-methyl-acetamide]
Ymin (5 hr): +++ (30% ≤ Ymin < 50%)
DC50: < 10 nM

CNC(=O)COc1cc2cc(Nc3nc(N4CCN(C[C@@H]5CCN(c6ccc7c(C8CCC(=O)NC8=O)nn(C)c7c6)C5)[C@@H](C)C4)ncc3Cl)cnc2n(C(C)C)c1=O (stereo partly drawn) [Compound 216b, 2-((6-((5-Chloro-2-((3S)-4-(((3S)-1-(3-(2,6-dioxopiperidin-3-yl)-1-methyl-1H-indazol-6-yl)pyrrolidin-3-yl)methyl)-3-methylpiperazin-1-yl)pyrimidin-4-yl)amino)-1-isopropyl-2-oxo-1,2-dihydro-1,8-naphthyridin-3-yl)oxy)-N-methylacetamide]
Ymin (5 hr): +++ (30% ≤ Ymin < 50%)
DC50: 10 to 100 nM

CNC(=O)COc1cc2cc(Nc3nc(N4CC5(CCC(CN6CCN(c7ccc8c(C9CCC(=O)NC9=O)nn(C)c8c7)CC6)CC5)C4)ncc3Cl)cnc2n(C(C)C)c1=O (stereo not shown) [Compound 205, 2-((6-((5-chloro-2-(7-((4-(3-(2,6-dioxopiperidin-3-yl)-1-methyl-1H-indazol-6-yl)piperazin-1-yl)methyl)-2-azaspiro[3.5]nonan-2-yl)pyrimidin-4-yl)amino)-1-isopropyl-2-oxo-1,2-dihydro-1,8-naphthyridin-3-yl)oxy)-N-methylacetamide]
Ymin (5 hr): ++++ (Ymin < 30%)
DC50: < 10 nM

CNC(=O)COc1cc2cc(Nc3nc(N4CCN([C@H]5C[C@H](OC6CCN(c7ccc8c(C9CCC(=O)NC9=O)nn(C)c8c7)CC6)C5)CC4)ncc3Cl)cnc2n(C(C)C)c1=O (stereo partly shown) [Compound 227a, 2-((6-((5-chloro-2-(4-((1r,3r)-3-((1-(3-(2,6-dioxopiperidin-3-yl)-1-methyl-1H-indazol-6-yl)piperidin-4-yl)oxy)cyclobutyl)piperazin-1-yl)pyrimidin-4-yl)amino)-1-isopropyl-2-oxo-1,2-dihydro-1,8-naphthyridin-3-yl)oxy)-N-methylacetamide]
Ymin (5 hr): ++ (50% ≤ Ymin < 70%)
DC50: < 10 nM

CNC(=O)COc1cc2cc(Nc3nc(N4CCC(CN5C6CC5CN(c5cccc7c(C8CCC(=O)NC8=O)nn(C)c57)C6)CC4)ncc3Cl)cnc2n(C(C)C)c1=O (stereo not shown) [Compound 209, 2-[[6-[[5-chloro-2-[4-[[3-[3-(2,6-dioxo-3-piperidyl)-1-methyl-indazol-7-yl]-3,6-diazabicyclo[3.1.1]heptan-6-yl]methyl]-1-piperidyl]pyrimidin-4-yl]amino]-1-isopropyl-2-oxo-1,8-naphthyridin-3-yl]oxy]-N-methyl-acetamide]
Ymin (5 hr): +++ (30% ≤ Ymin < 50%)
DC50: < 10 nM

CNC(=O)COc1cc2cc(Nc3nc(N4CCC([C@](C)(O)C5CCN(c6ccc7c(C8CCC(=O)NC8=O)nn(C)c7c6)CC5)CC4)ncc3Cl)cnc2n(C(C)C)c1=O (single isomer, unassigned) [Compound 201b]
Ymin (5 hr): +++ (30% ≤ Ymin < 50%)
DC50: < 10 nM

CNC(=O)COc1cc2cc(Nc3nc(N4CCC5(CC4)CN(CC4CCN(c6ccc7c(C8CCC(=O)NC8=O)nn(C)c7c6)CC4)C5)ncc3Cl)cnc2n(C)c1=O (stereo not shown) [Compound 121, 2-((6-((5-chloro-2-(2-((1-(3-(2,6-dioxopiperidin-3-yl)-1-methyl-1H-indazol-6-yl)piperidin-4-yl)methyl)-2,7-diazaspiro[3.5]nonan-7-yl)pyrimidin-4-yl)amino)-1-methyl-2-oxo-1,2-dihydro-1,8-naphthyridin-3-yl)oxy)-N-methylacetamide]
Ymin (5 hr): +++ (30% ≤ Ymin < 50%)
DC50: < 10 nM

CNC(=O)COc1cc2cc(Nc3nc(N4CC5COCC(C4)N5CC4CCN(c5cccc6c(C7CCC(=O)NC7=O)nn(C)c56)CC4)ncc3Cl)cnc2n(C)c1=O (stereo not shown) [Compound 117, 2-((6-((5-chloro-2-(9-((1-(3-(2,6-dioxopiperidin-3-yl)-1-methyl-1H-indazol-7-yl)piperidin-4-yl)methyl)-3-oxa-7,9-diazabicyclo[3.3.1]nonan-7-yl)pyrimidin-4-yl)amino)-1-methyl-2-oxo-1,2-dihydro-1,8-naphthyridin-3-yl)oxy)-N-methylacetamide]
Ymin (5 hr): ++++ (Ymin < 30%)
DC50: < 10 nM

CNC(=O)COc1cc2cc(Nc3nc(N4CCC(CN5C[C@H]6C[C@@H]5CN6c5cccc6c(C7CCC(=O)NC7=O)nn(C)c56)CC4)ncc3Cl)cnc2n(C(C)C)c1=O (stereo partly drawn) [Compound 175a, 2-[[6-[[5-chloro-2-[4-[[(1R,4R)-5-[3-(2,6-dioxo-3-piperidyl)-1-methyl-indazol-7-yl]-2,5-diazabicyclo[2.2.1]heptan-2-yl]methyl]-1-piperidyl]pyrimidin-4-yl]amino]-1-isopropyl-2-oxo-1,8-naphthyridin-3-yl]oxy]-N-methyl-acetamide]
Ymin (5 hr): +++ (30% ≤ Ymin < 50%)
DC50: < 10 nM

CNC(=O)COc1cc2cc(Nc3nc(N4CCN(CC5CCN(c6cccc7c(C8CCC(=O)NC8=O)nn(C)c67)CC5)CC4)ncc3Cl)cnc2n(CCO)c1=O (stereo not shown) [Compound 186, 2-((6-((5-chloro-2-(4-((1-(3-(2,6-dioxopiperidin-3-yl)-1-methyl-1H-indazol-7-yl)piperidin-4-yl)methyl)piperazin-1-yl)pyrimidin-4-yl)amino)-1-(2-hydroxyethyl)-2-oxo-1,2-dihydro-1,8-naphthyridin-3-yl)oxy)-N-methylacetamide]
Ymin (5 hr): ++++ (Ymin < 30%)
DC50: 10 to 100 nM

CNC(=O)COc1cc2cc(Nc3nc(N4CCC(CN5C[C@@H]6C[C@H]5CN6c5cccc6c(C7CCC(=O)NC7=O)nn(C)c56)CC4)ncc3Cl)cnc2n(C(C)C)c1=O (stereo partly drawn) [Compound 175b, 2-[[6-[[5-chloro-2-[4-[[(1S,4S)-5-[3-(2,6-dioxo-3-piperidyl)-1-methyl-indazol-7-yl]-2,5-diazabicyclo[2.2.1]heptan-2-yl]methyl]-1-piperidyl]pyrimidin-4-yl]amino]-1-isopropyl-2-oxo-1,8-naphthyridin-3-yl]oxy]-N-methyl-acetamide]
Ymin (5 hr): +++ (30% ≤ Ymin < 50%)
DC50: < 10 nM
